For one assay, the target named is T1, human MR (Homo sapiens, UniProt P08235).
T1 construct: The full length human MR gene is cloned from a human kidney or human brain cDNA library; inferred from own knowledge of the pAcHLT vector (N); made in house; host or cells: Sf9 insect cells (baculovirus)
T1 sequence (P08235 1-984): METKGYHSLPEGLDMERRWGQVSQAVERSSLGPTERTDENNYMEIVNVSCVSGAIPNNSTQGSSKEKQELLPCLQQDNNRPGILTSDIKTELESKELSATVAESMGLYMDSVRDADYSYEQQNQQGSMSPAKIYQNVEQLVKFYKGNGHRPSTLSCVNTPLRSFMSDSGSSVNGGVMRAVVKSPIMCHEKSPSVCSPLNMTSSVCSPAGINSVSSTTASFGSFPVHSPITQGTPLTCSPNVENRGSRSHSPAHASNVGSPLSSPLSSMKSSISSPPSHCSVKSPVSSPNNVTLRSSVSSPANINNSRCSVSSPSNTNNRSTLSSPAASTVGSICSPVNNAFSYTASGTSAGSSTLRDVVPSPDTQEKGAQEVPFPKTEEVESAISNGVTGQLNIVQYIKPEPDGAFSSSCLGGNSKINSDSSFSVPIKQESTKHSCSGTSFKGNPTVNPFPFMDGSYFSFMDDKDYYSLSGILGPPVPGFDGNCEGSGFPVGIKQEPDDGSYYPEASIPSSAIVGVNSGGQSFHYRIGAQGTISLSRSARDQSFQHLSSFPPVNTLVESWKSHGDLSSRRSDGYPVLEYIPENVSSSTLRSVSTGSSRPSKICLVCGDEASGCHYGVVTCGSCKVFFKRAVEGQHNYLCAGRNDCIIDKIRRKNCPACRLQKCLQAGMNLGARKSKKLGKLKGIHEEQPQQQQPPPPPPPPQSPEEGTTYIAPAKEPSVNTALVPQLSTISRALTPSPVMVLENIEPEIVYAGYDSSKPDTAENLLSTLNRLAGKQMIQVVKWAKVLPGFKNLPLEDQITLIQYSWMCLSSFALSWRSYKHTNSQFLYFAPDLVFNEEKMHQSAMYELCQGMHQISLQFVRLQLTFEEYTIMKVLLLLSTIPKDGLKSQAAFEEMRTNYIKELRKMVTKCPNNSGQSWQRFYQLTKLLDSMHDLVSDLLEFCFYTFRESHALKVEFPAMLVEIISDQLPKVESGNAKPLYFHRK
As to the kind of experiment: Mineralocorticoid Receptor Binding Assay (Method 1), [3H]-aldosterone competition. The note with it: 0.5 nM [3H]-aldosterone, human MR expressed in Sf9 cells. Here is the method:
Mineralocorticoid Receptor Binding Assay (Method 1):
The full length human MR gene is cloned from a human kidney or human brain cDNA library. […] The PCR reaction is performed in a final volume of 50 μl containing about 1 μl of a 50× stock solution of polymerase; about 1 μl of a 50× stock solution of dNTP; about 5 μl of an appropriate PCR buffer; about 1 μl of each primer; about 5 μl of a H. kidney or H. brain cDNA library; and about 36 μl of water. The reaction is allowed to denature for about 30 seconds at 95 degrees Celsius, anneal for about 30 seconds at 55 degrees Celsius, and extend for about 5 minutes at 72 degrees Celsius, the sequence being repeated for a total of about 35 cycles. […] To extract the cDNA product from the agarose gel, the QIAEX II Gel Extraction protocol (QIAGEN, Inc.) is employed according to the manufacturer's instructions. Following extraction, the MR cDNA is cloned into an appropriate cloning vector (Zero Blunt TOPO PCR Cloning Kit (Invitrogen, Inc.) and a pAcHLT-baculovirus transfer vector (B.D./Pharminogen), then expressed in SF9 insect cells, essentially according to manufacturer's instructions. Sf9 cells are grown at a scale where gram quantity cell pellets are obtained for subsequent use in the MR binding assay. Harvested cell pellets are lysed by repeated freeze-thaw cycles (about 4) in a suitable lysis buffer then centrifuged at about 1×10^3 G (with the supernatant being saved for future assays).
MR binding assays are performed in a final total volume of about 250 μl containing about 20-25 μg of protein and 0.5 nM of [^3H]-aldosterone plus varying concentrations of test compound or vehicle. The assay binding buffer consists of 30 mM sodium molybdate, 30 mM of TRIS-HCl, 5 mM sodium phosphate, 5 mM sodium pyrophosphate, and about 10% glycerol, pH=7.5.
Incubations are carried out at 4 degrees Celsius with shaking for about 16 hours. 200 μl aliquots of each incubation are filtered onto Millipore HA 0.45 micron 96-well filter plates, pre-moistened with cold 30 mM TRIS-HCl. The filter plates are suctioned dry with vacuum and immediately washed 3× with cold 30 mM TRIS-HCl. The plates are then punched out and the amount of receptor-ligand complex is determined by liquid scintillation counting using 4 ml of Ready Protein Plus™ liquid scintillation cocktail.

A further assay deals with T2, glucocorticoid receptor (Homo sapiens, UniProt P04150).
T2 construct: containing 50-200 ug of A549 cell extract and 1.86 nM; host or cells: A549 human lung epithelial cells
T2 sequence (P04150 1-777): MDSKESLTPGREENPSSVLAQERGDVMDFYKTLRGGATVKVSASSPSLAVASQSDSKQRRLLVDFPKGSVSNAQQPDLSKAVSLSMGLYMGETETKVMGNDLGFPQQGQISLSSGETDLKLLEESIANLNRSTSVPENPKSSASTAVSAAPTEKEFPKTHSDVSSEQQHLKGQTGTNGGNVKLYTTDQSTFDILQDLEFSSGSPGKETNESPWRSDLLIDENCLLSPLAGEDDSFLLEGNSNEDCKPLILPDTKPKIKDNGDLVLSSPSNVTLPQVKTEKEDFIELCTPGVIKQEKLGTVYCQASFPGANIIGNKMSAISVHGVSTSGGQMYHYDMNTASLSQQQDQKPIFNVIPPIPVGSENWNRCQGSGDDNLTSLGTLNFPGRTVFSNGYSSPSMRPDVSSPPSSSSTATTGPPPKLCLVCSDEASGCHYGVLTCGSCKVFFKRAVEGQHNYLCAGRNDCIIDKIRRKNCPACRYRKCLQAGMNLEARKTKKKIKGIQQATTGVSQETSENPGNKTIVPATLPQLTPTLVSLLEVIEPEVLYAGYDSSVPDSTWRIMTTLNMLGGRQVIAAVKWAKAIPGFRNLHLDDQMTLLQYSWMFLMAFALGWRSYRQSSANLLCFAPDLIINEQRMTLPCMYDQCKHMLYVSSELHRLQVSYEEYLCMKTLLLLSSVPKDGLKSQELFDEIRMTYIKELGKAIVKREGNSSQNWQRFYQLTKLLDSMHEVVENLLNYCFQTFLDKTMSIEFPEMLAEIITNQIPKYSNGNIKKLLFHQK
As to the kind of experiment: Glucocorticoid Receptor Binding Assay (Method 1), [3H]-dexamethasone competition, A549 cell extract. Conditions: 1.86 nM [3H]-dexamethasone, read-out: GR Ki (nM) Method 1. Here is the method:
Glucocorticoid Receptor Binding Assay (Method 1):
A549 human lung epithelial cells (ATCC) are grown at a scale where gram quantity cell pellets are obtained. Harvested cell pellets are washed twice in cold phosphate buffered saline, centrifuged, and resuspended in cold assay binding buffer. The assay binding buffer consists of 10% glycerol, 50 mM Tris-HCl (pH7.2), 75 mM sodium chloride, 1.5 mM magnesium chloride, 1.5 mM EDTA, and 10 mM sodium molybdate. Cell suspensions were lysed via sonication, centrifuged, and the “extract” supernatant is snap frozen and stored at −80 C until needed.
Incubations are carried out at 4 degrees Celsius for 16 hours. After incubation, 70 ul of 3× dextran-coated charcoal solution is added to each reaction, mixed, and incubated for 8 minutes at RT. 3×-dextran-coated charcoal solution consists of 250 ml assay binding buffer, 3.75 g Norit A charcoal (Sigma), and 1.25 g dextran T-70 (Amersham). Charcoal/unbound radioligand complexes are removed by centrifugation of the plate and 140 ul of supernatant from each well is transferred to another 96 well Optiplate (Packard Instruments). 200 ul of Microscint-20 scinillant (Packard Instruments) is added to each well and amount of receptor bound radioligand is determined using Packard Instruments TopCount instrument.

For the molecule `CCC(CC)(c1ccc2c(c1)CCO2)c1c[nH]c2c(NS(C)(=O)=O)cccc12` [Example 3, N-{3-[1-(2,3-Dihydro-benzofuran-5-yl)-1-ethyl-propyl]-1H-indol-7-yl}-methanesulfonamide], the Ki at human MR and on glucocorticoid receptor was < 500 nM throughout.

For the molecule `CCC(CC)(c1cc2cccc(OC)c2o1)c1c[nH]c2c(NS(C)(=O)=O)cccc12` [Example 4, N-{3-[1-Ethyl-1-(7-methoxy-benzofuran-2-yl)-propyl]-1H-indol-7-yl}-methanesulfonamide], the Ki at human MR and on glucocorticoid receptor was < 500 nM in each case.

In the case of `CC(c1ccc(F)cc1)(c1c[nH]c2c(NS(C)(=O)=O)cccc12)C1CC1` (stereo not shown) [Example 5, N-{3-[1-Cyclopropyl-1-(4-fluoro-phenyl)-ethyl]-1H-indol-7-yl}-methanesulfonamide], the Ki on human MR and on glucocorticoid receptor was < 500 nM each time.

Regarding `CCC(CC)(c1cc2ccccc2s1)c1c[nH]c2c(NS(C)(=O)=O)cccc12` [Example 6, N-[3-(1-Benzo[b]thiophen-2-yl-1-ethyl-propyl)-1H-indol-7-yl]-methanesulfonamide], the inhibition constant (Ki) at human MR and on glucocorticoid receptor was < 500 nM in each case.

For `CCCC(C)(c1ccc(F)cc1)c1c[nH]c2c(NS(C)(=O)=O)cccc12` (stereo not shown) [Example 7, N-{3-[1-(4-Fluoro-phenyl)-1-methyl-butyl]-1H-indol-7-yl}-methanesulfonamide], the Ki at human MR and at glucocorticoid receptor was < 500 nM in each case.

Consider `CCC(CC)(c1ccc(SC)cc1)c1c[nH]c2c(NS(C)(=O)=O)cccc12` [Example 8, N-{3-[1-Ethyl-1-(4-methylsulfanyl-phenyl)-propyl]-1H-indol-7-yl}-methanesulfonamide], for which the Ki at human MR and at glucocorticoid receptor was < 500 nM in each case.

For the molecule `CC(C)(c1cc2ccccc2o1)c1c[nH]c2c(NS(C)(=O)=O)cccc12` [Example 9, N-[3-(1-Benzofuran-2-yl-1-methyl-ethyl)-1H-indol-7-yl]-methanesulfonamide], the Ki at human MR and on glucocorticoid receptor was < 500 nM each time.

For `CCCC(C)(c1ccsc1)c1c[nH]c2c(NS(C)(=O)=O)cccc12` (stereo not shown) [Example 10, N-[3-(1-Methyl-1-thiophen-3-yl-butyl)-1H-indol-7-yl]-methanesulfonamide], the Ki at human MR and at glucocorticoid receptor was < 500 nM in each case.

Consider `CCC(CC)(c1cc2cc(Cl)ccc2o1)c1c[nH]c2c(NS(C)(=O)=O)cccc12` [Example 11, N-{3-[1-(5-Chloro-benzofuran-2-yl)-1-ethyl-propyl]-1H-indol-7-yl}-methanesulfonamide], for which the inhibitory constant (Ki) (in general, the equilibrium dissociation constant of an inhibitor or competing ligand from its target) on human MR was < 500 nM; at glucocorticoid receptor, < 10000 nM.

Consider `Cc1ccc(C(C)(C)c2c[nH]c3c(NS(C)(=O)=O)cccc23)cc1` [Example 12, N-[3-(1-Methyl-1-p-tolyl-ethyl)-1H-indol-7-yl]-methanesulfonamide], for which the Ki on human MR and at glucocorticoid receptor was < 500 nM throughout.

Regarding `CC(C)(c1cc2ccccc2s1)c1c[nH]c2c(NS(C)(=O)=O)cccc12` [Example 13, N-[3-(1-Benzo[b]thiophen-2-yl-1-methyl-ethyl)-1H-indol-7-yl]-methanesulfonamide], the results for the Ki on human MR and on glucocorticoid receptor were < 500 nM and < 1000 nM, respectively.

For `CC(C)(c1csc2ccccc12)c1c[nH]c2c(NS(C)(=O)=O)cccc12` [Example 14, N-[3-(1-Benzo[b]thiophen-3-yl-1-methyl-ethyl)-1H-indol-7-yl]-methanesulfonamide], the Ki at human MR and at glucocorticoid receptor was < 500 nM throughout.

`CCC(CC)(c1cccs1)c1c[nH]c2c(NS(C)(=O)=O)cccc12` [Example 15, N-[3-(1-Ethyl-1-thiophen-2-yl-propyl)-1H-indol-7-yl]-methanesulfonamide]: the Ki at human MR and at glucocorticoid receptor was < 500 nM each time.

With `CS(=O)(=O)Nc1cccc2c(C3(c4ccccc4)CCCCC3)c[nH]c12` [Example 16, N-[3-(1-Phenylcyclohexyl)-1H-indol-7-yl]-methanesulfonamide], the Ki on human MR was < 500 nM; on glucocorticoid receptor it was < 1000 nM.

As to `CCC(CC)(c1ccc(OCc2ccccc2)cc1)c1c[nH]c2c(NS(C)(=O)=O)cccc12` [Example 17, N-{3-[1-(4-Benzyloxy-phenyl)-1-ethyl-propyl]-1H-indol-7-yl}-methanesulfonamide], the inhibition constant (Ki) on human MR and on glucocorticoid receptor was < 500 nM each time.

Consider `CCC(CC)(c1ccc(O)cc1)c1c[nH]c2c(NS(C)(=O)=O)cccc12` [Example 18, N-{3-[1-Ethyl-1-(4-hydroxy-phenyl)-propyl]-1H-indol-7-yl}-methanesulfonamide], for which the Ki at human MR and on glucocorticoid receptor was < 500 nM each time.

As for `CCCC(C)(c1ccc(OC)cc1)c1c[nH]c2c(CC)cccc12` (stereo not shown) [Example 19, 7-Ethyl-3-[1-(4-methoxy-phenyl)-1-methyl-butyl]-1H-indole], the Ki at human MR and on glucocorticoid receptor was < 500 nM in each case.

(Values after patent US20060235222A1, “Indole-derivative modulators of steroid hormone nuclear receptors” (ELI LILLY AND COMPANY, priority 2003, published 2006).)
